Source: patent publication US4388311A, “Method for the induction of menses” (G. D. Searle & Co., priority 1982, dated 1983)
Values joined by “and” are separate entries in the source; they are usually repeats but may differ in a detail not shown here. Identical values can stand only once.

What was measured:
[1] = test system: pregnancy in rats; assay: Termination of pregnancy in rats, compounds administered subcutaneously (Table 2); format: in vivo, rat
Method: (§1) The following tables list the results for a compound of Formula IV as compared with a control of previously known 2α-cyano-17β-hydroxy-3-oxo-4,4,17α-trimethylandrost-5-end(Cyanoketone) for termination of pregnancy.
^1 Compounds given subcutaneously in corn oil vehicle once daily on
days 10 through 13 of pregnancy. Serum for progesterone determination was
drawn on day 11 of pregnancy, 24 hours after the initial injection of
(§2) compound. The animals were autopsied on day 14 of pregnancy.
^2 Serum progesterone values determined by RIA at Interlab Associates

[2] = test system: pregnancy in rats; assay: Pregnancy termination in rats, compounds administered intragastrically on day 10 of pregnancy (Table 3); format: in vivo, rat; details: autopsy day 14
Method: as §1
^1 Compounds were administered intragastrically once daily on days 10
of pregnancy in a vehicle consisting of PEG400, propylene glycol and 100
percent ethanol (50:40:10, v:v:v). Serum for progesterone determination
was drawn on day 11 of pregnancy, 24 hours after the initial injection of
as §2

[3] = 2 mg/kg/day subcutaneously in corn oil once daily days 10-13 of pregnancy, autopsy day 14
[4] = 4 mg/kg/day subcutaneously days 10-13 of pregnancy, serum day 11, 24 hours after initial injection
[5] = 4 mg/kg/day subcutaneously in corn oil once daily days 10-13 of pregnancy, autopsy day 14
[6] = 8 mg/kg/day subcutaneously days 10-13 of pregnancy, serum day 11, 24 hours after initial injection
[7] = 8 mg/kg/day subcutaneously in corn oil once daily days 10-13 of pregnancy, autopsy day 14
[8] = 16 mg/kg/day subcutaneously days 10-13 of pregnancy, serum day 11, 24 hours after initial injection
[9] = 16 mg/kg/day subcutaneously in corn oil once daily days 10-13 of pregnancy, autopsy day 14, 16 mg/kg/day
[10] = 32 mg/kg/day subcutaneously days 10-13 of pregnancy, serum day 11, 24 hours after initial injection
[11] = 32 mg/kg/day subcutaneously in corn oil once daily days 10-13 of pregnancy, autopsy day 14
[12] = 1 mg/kg intragastrically once on day 10 of pregnancy
[13] = 2 mg/kg intragastrically once on day 10 of pregnancy
[14] = 4 mg/kg intragastrically once on day 10 of pregnancy
[15] = 8 mg/kg intragastrically once on day 10 of pregnancy
[16] = 16 mg/kg intragastrically once on day 10 of pregnancy
[17] = 32 mg/kg intragastrically once on day 10 of pregnancy

With `CC1(C)C(=O)[C@H](C#N)C[C@@]2(C)C1=CC[C@@H]1[C@@H]2CC[C@@]2(C)[C@H]1CC[C@]2(C)O` [Cyanoketone, 2α-cyano-17β-hydroxy-3-oxo-4,4,17α-trimethylandrost-5-end] the “Adrenal Wt. mg + SE” value [1, 3] was 91.6 + 4.6 mg, the “Fetal Viability: Normal Fetuses/Implantation Sites” value [1, 3] was 94/103 and the “Fetal Viability: Normal Fetuses/Implantation Sites (Percent)” value [1, 3] was 91%. For the same compound, the “Number of Rats Pregnant/Number of Rats Treated” value [1, 3] was 8/8, the “Number of Rats Pregnant/Number of Rats Treated (Percent)” value [1, 3] was 100% and the “Serum Progesterone (Percent Control)” value [1, 4] was 92 Percent Control. The “Serum Progesterone ng/ml + S.E.” value [1, 4] was 40.0 + 3.5 ng/ml, the “Adrenal Wt. mg + SE” value [1, 5] was 93.1 + 4.0 mg and the “Fetal Viability: Normal Fetuses/Implantation Sites” value [1, 5] was 27/87. The “Fetal Viability: Normal Fetuses/Implantation Sites (Percent)” value [1, 5] was 32%, the “Number of Rats Pregnant/Number of Rats Treated” value [1, 5] was 3/6 and the “Number of Rats Pregnant/Number of Rats Treated (Percent)” value [1, 5] was 50%. The “Serum Progesterone (Percent Control)” value [1, 6] was 44 Percent Control, the “Serum Progesterone ng/ml + S.E.” value [1, 6] was 22.1 + 6.0 ng/ml and the “Adrenal Wt. mg + SE” value [1, 7] was 78.8 + 3.9 mg. For the same compound, the “Fetal Viability: Normal Fetuses/Implantation Sites” value [1, 7] was 36/119, the “Fetal Viability: Normal Fetuses/Implantation Sites (Percent)” value [1, 7] was 30% and the “Number of Rats Pregnant/Number of Rats Treated” value [1, 7] was 5/10. The “Number of Rats Pregnant/Number of Rats Treated (Percent)” value [1, 7] was 50%, the “Serum Progesterone (Percent Control)” value [1, 8] was 48 Percent Control and the “Serum Progesterone ng/ml + S.E.” value [1, 8] was 24.3 + 7.6 ng/ml. For the same compound, the “Serum Progesterone (Percent Control)” value ([1]; 16 mg/kg/day subcutaneously days 10-13 of pregnancy, serum day 11, determined by RIA at Interlab Associates (footnote 2)) was 70 Percent Control, the “Serum Progesterone ng/ml + S.E.” value ([1]; 16 mg/kg/day subcutaneously days 10-13 of pregnancy, serum day 11, group whose values were determined by RIA at Interlab Associates (footnote 2)) was 50.7 + 5.4 ng/ml and the “Adrenal Wt. mg + SE” value [1, 9] was 77.0 + 4.5 mg and 105.2 mg. For the same compound, the “Fetal Viability: Normal Fetuses/Implantation Sites” value [1, 9] was 26/103 and 11/94, the “Number of Rats Pregnant/Number of Rats Treated” value [1, 9] was 3/9 and 2/8 and the “Number of Rats Pregnant/Number of Rats Treated (Percent)” value [1, 9] was 33% and 25%. For the same compound, the “Serum Progesterone (Percent Control)” value [1, 10] was 70 Percent Control, the “Serum Progesterone ng/ml + S.E.” value [1, 10] was 35.1 + 7.8 ng/ml and the “Adrenal Wt. mg + SE” value [1, 11] was 94.8 + 8.9 mg. The “Fetal Viability: Normal Fetuses/Implantation Sites” value [1, 11] was 15/63, the “Fetal Viability: Normal Fetuses/Implantation Sites (Percent)” value [1, 11] was 24% and the “Number of Rats Pregnant/Number of Rats Treated” value [1, 11] was 2/6. The “Number of Rats Pregnant/Number of Rats Treated (Percent)” value [1, 11] was 33%, the “Adrenal Wt. mg + SE” value [2, 12] was 55.8 + 4.1 mg and the “Fetal Viability: Normal Fetuses/Implantation Sites” value [2, 12] was 54/56. For the same compound, the “Fetal Viability: Normal Fetuses/Implantation Sites (Percent)” value [2, 12] was 96%, the “Number of Rats Pregnant/Number of Rats Treated” value [2, 12] was 5/5 and the “Number of Rats Pregnant/Number of Rats Treated (Percent)” value [2, 12] was 100%. For the same compound, the “Adrenal Wt. mg + SE” value [2, 13] was 64.1 + 5.2 mg, the “Fetal Viability: Normal Fetuses/Implantation Sites” value [2, 13] was 56/77 and the “Fetal Viability: Normal Fetuses/Implantation Sites (Percent)” value [2, 13] was 72%. The “Number of Rats Pregnant/Number of Rats Treated” value [2, 13] was 6/6, the “Number of Rats Pregnant/Number of Rats Treated (Percent)” value [2, 13] was 100% and the “Adrenal Wt. mg + SE” value [2, 14] was 75.9 + 6.1 mg. The “Fetal Viability: Normal Fetuses/Implantation Sites” value [2, 14] was 46/84, the “Fetal Viability: Normal Fetuses/Implantation Sites (Percent)” value [2, 14] was 55% and the “Number of Rats Pregnant/Number of Rats Treated” value [2, 14] was 4/7. For the same compound, the “Number of Rats Pregnant/Number of Rats Treated (Percent)” value [2, 14] was 57%, the “Fetal Viability: Normal Fetuses/Implantation Sites” value [2, 15] was 11/112 and the “Fetal Viability: Normal Fetuses/Implantation Sites (Percent)” value [2, 15] was 10%. For the same compound, the “Number of Rats Pregnant/Number of Rats Treated” value [2, 15] was 1/9, the “Number of Rats Pregnant/Number of Rats Treated (Percent)” value [2, 15] was 11% and the “Adrenal Wt. mg + SE” value [2, 16] was 61.3 + 3.0 mg. For the same compound, the “Fetal Viability: Normal Fetuses/Implantation Sites” value [2, 16] was 8/108, the “Fetal Viability: Normal Fetuses/Implantation Sites (Percent)” value [2, 16] was 7% and the “Number of Rats Pregnant/Number of Rats Treated” value [2, 16] was 1/9. For the same compound, the “Number of Rats Pregnant/Number of Rats Treated (Percent)” value [2, 16] was 11%, the “Adrenal Wt. mg + SE” value [2, 17] was 60.3 + 1.6 mg and the “Fetal Viability: Normal Fetuses/Implantation Sites” value [2, 17] was 10/106. The “Fetal Viability: Normal Fetuses/Implantation Sites (Percent)” value [2, 17] was 9%, the “Number of Rats Pregnant/Number of Rats Treated” value [2, 17] was 1/10 and the “Number of Rats Pregnant/Number of Rats Treated (Percent)” value [2, 17] was 10%.
